Where no end group is shown, it is not given here. [ ]: non-standard residue; d: D form. Tyr(3,5-I2) = N[C@@H](Cc1cc(I)c(O)c(I)c1)C(=O)O
Legend:
[1] = system: E18 cortical neuronal cultures; assay: Cortical neuronal cell survival, calcein-AM fluorometric viability assay; format: cell-based, rat; conditions: for total number of cells surviving relative to control (in words): 100 μM peptide, 4 days, insulin/serum-free media
Method: To determine whether carboxy-terminal linear peptide derivatives of IGFs can promote the survival of cortical neuronal cells, dissociated cultures of embryonic rat cortex were prepared and assayed for the total number of viable cells present after incubation in the presence or absence of peptide. Cortices were dissected from E18 embryonic rats, dissociated by enzymatic digestion or mechanical dissociation and seeded at a density of 6.25×10^4 cells/cm^2 in defined insulin/serum-free media (Bottenstein and Sato, PNAS, 76:514-517, (1979)) in the presence or absence of 100 μM peptide. […] This compound is taken up by all cells but can only be converted to a fluorescent derivative by live cells. The relative fluorescence values obtained reflect the total viable cell number. […] NO: 5) (Example 22), and the amino acid sequence […] To determine the potency of the carboxy terminal peptides we analyzed the ability of peptides to promote cell survival. We measured the total number of surviving cells within cortical neuronal cultures relative to basal control cultures. FIG. 16 illustrates the concentration-response relationship for peptide […] All peptides examined are effective within the micromolar concentration range in the fluorometric viability assay.

IGF-I receptor = target: T1, IGF-I receptor (Rattus norvegicus, UniProt P24062); assay: 125I-[Threonine59]IGF-I displacement (IGF-I receptor competition) assay, rat brain homogenate; format: binding; conditions: for PERCENT MAX. BOUND: peptide 100 μM
T1 construct: Brain tissue containing the cerebral cortex and cerebellum was dissected from adult Sprague-Dawley rats; from tissue; host or cells: adult Sprague-Dawley rat brain (cerebral cortex and cerebellum), homogenate pellet
T1 sequence (P24062 31-737 limits assumed): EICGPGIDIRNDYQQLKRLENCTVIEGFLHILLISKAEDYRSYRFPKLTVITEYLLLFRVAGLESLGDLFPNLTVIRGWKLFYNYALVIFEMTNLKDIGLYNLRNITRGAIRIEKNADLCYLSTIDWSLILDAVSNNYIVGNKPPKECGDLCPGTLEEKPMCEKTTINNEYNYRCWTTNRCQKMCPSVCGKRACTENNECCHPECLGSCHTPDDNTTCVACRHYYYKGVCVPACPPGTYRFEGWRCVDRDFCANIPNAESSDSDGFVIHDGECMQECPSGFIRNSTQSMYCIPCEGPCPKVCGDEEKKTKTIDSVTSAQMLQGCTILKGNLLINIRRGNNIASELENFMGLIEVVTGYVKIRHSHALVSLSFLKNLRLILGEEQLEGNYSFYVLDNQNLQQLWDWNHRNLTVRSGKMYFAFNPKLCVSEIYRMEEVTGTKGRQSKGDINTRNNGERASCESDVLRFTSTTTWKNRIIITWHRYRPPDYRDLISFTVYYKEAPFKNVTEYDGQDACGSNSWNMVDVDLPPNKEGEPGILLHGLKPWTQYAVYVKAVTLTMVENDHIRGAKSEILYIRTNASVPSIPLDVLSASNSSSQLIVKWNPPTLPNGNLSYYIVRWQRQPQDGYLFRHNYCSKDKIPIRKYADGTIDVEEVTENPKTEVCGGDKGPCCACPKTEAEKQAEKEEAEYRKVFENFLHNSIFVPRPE
T1 sequence (P24062 742-1370 partner limits assumed): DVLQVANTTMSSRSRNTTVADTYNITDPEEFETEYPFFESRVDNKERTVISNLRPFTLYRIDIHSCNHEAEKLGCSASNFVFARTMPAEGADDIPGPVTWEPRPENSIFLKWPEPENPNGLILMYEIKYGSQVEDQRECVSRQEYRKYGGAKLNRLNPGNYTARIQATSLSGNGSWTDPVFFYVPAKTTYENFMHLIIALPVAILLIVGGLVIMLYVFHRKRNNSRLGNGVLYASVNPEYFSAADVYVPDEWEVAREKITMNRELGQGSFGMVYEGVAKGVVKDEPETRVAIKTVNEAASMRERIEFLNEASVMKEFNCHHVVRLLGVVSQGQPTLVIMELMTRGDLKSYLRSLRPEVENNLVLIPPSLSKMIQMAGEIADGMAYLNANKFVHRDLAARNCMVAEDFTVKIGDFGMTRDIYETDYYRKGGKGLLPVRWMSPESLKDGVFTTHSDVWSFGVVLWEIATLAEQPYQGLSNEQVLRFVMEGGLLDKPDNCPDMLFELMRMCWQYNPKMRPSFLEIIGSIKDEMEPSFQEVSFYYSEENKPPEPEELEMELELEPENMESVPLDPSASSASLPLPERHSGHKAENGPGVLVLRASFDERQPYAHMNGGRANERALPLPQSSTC
Method: Brain tissue containing the cerebral cortex and cerebellum was dissected from adult Sprague-Dawley rats (Hilltop Lab Animals, Inc. Scottsdale, Pa.) and homogenized at low power for 5 minutes in a Brinkmann Polytron homogenizer (Westbury, N.Y.) containing 50 volumes of ice-cold buffer consisting of 10 mM HEPES, 0.5% BSA, 0.0125% NEM, 0.025% bacitracin, and 100 KIU/ml aprotinin, pH 7.6 (Bohannon et al., Endocrinology 119:943-945 (1986). Following homogenization, the tissue was collected after centrifugation at 7800×g for 20 minutes and resuspended in 10 volumes of assay buffer. Tissue (50 μl), 100 μl ^125I-[Threonine^59]IGF-I (20 pM), and 50 μl of buffer or peptides of varying concentration were added to 96-well plates and incubated on ice for 3 hours. After the incubation period, the tissue was collected on Whatman GF/C filters that had been pre-soaked in 0.01% polyethylenimine and washed four times with ice-cold assay buffer using a Brandel cell harvester (Gaithersburg, Md.). The filters were removed and the bound ^125I-[Threonine 59]IGF-I was measured using a Beckman Model 5500B Gamma Counter.

[2] = system: cultured rat cortical cells; assay: [3H]-leucine incorporation in cultured rat cortical cells; format: cell-based; conditions: low density 24 hour mixed cortical cultures
Method: (§1) The ability of IGF-I and a synthetic derivative of IGF-II (IGF-II(54-67)) to increase the incorporation of [^3H]-leucine and to promote the survival of neurite bearing cells was examined in cultured rat cortical cells (the numbers “54-67” in IGF-II indicate the fragment includes amino acid residues 54-67 of native IGF-II).
(§2) Measurements were performed, using standard techniques known to those skilled in the art, on dissociated cortical cells obtained from day 18-19 embryonic rats. Cells were seeded at 1.5×10^4/cm^2 on poly-1-ornithine-laminin coated plastic tissue culture cells in serum-free N2 medium (Bottenstein et al. Proc. Natl. Acad. Sci. U.S.A. 76: 514-517 (1978)). [^3H]-leucine was added to cells at plating for the incorporation assay. Cultures were terminated 24 hours after plating and measured for either [^3H]-leucine incorporation or for the number of neuritic cells by microscopic examination.

[3] = system: 125I-[Threonine59]IGF-I binding to brain tissue sections; assay: 125I-[Threonine59]IGF-I binding displacement on rat brain tissue sections
Method: Brains were removed intact from adult Sprague-Dawley rats, frozen on powdered dry ice, and cut into 20 μm sections (at the level of the cerebellum and brain stem) which were
thaw-mounted onto gelatin-coated glass microscope slides (Herkenham and Pert, J. Neurosci. 2:1129-1149 (1982)). Using a modification of the method of Bohannon et al. (1986), the tissue sections were covered with 250 μl of HEPES assay buffer (see Example 1) containing 0.01 nM ^125I-[Threonine^59]IGF-I alone or in combination with unlabeled IGF-I, IGF-II, or synthetic peptide fragments thereof. The sections were incubated at 4° C. for 24 hours and then rinsed in three 1-minute changes (200 ml each) of ice-cold HEPES assay buffer. The tissue sections were then wiped off the slides with filter paper, and the tissue-bound radioactivity was measured in a Beckman Model 5500B Gamma Counter.

[4] = system: brain ornithine decarboxylase; assay: Induction of brain ornithine decarboxylase after intracerebral injection, 4 day old rats; format: in vivo, rat; conditions: 6 hours
Method: The in vivo activity of IGF-I, IGF-II or synthetic peptide derivatives of these molecules was tested using a biochemical marker for CNS neurotrophic activity, the induction of brain ornithine decarboxylase. The induction (i.e. increased activity) of ornithine decarboxylase has been reported to be a general marker for the actions of a variety of trophic factors. (Schwartz et al., Dev. Brain Res. 1:403-413 (1981); Kanje et al., Brain Res. 381:24-28 (1986); Russell et al., Life Sci. 19:1297-1306 (1976); MacDonnell et al. Proc. Natl. Acad. Sci. USA 74, 4681-4684 (1977); […] et al. Proc. Natl. Acad. Sci. USA 82, 4365-4368 (1985)). Sprague-Dawley rats, 4 days old, were injected intracerebrally (in the area of the lateral ventricle) with 5 μl of 0.1 M phosphate-buffered saline (PBS) containing IGF-I, IGF-II or a synthetic peptide derivative (1.25-2.5 μg dose, with 6 animals per treatment group). After 6 hours, the brains were removed, and ornithine decarboxylase was assayed essentially as described by Lewis et al., Proc. Natl. Acad. Sci. USA 75:1021-1023 (1978).

cortical neurons = assay: Survival of neurite bearing cells in cultured rat cortical cells; format: cell-based; conditions: 24 hours after plating
Method: as §1, §2

[5] = system: E18 rat cortices cultures; assay: Cortical neurite outgrowth / regeneration; format: cell-based; conditions: 100 μM peptide, 96 hours
Method: To determine whether carboxy-terminal linear peptides of IGFs could promote cortical neurite regeneration, dissociated preparations of E18 rat cortices were cultured in defined insulin/serum-free media in the presence or absence of 100 μM peptides: IGF-II(54-67) (SEQ ID NO:3), IGF-I(55-70) (SEQ ID NO:4), peptide TYCAPAKSE (SEQ ID NO:1), peptide EPYCAPPAKSE (SEQ ID NO:5), IGF-II(54-67; D-Y) (SEQ ID NO:45) and IGF-II(58-67) (SEQ ID NO:2). The cultures were observed 96 hours after peptide exposure and photomicrographs were taken.

[6] = format: in vitro ADME
Method: The peptides of Examples 22 and 23 are modified peptides containing the D isomer of tyrosine (D-Y) at position 59 within IGF-II amino acids 54-67 or 58-67. These modifications were made to prevent peptide bond degradation due to enzymatic cleavage amino terminal to position 60 of IGF-II(54-67) and (58-67). Using a non-denaturing HPLC size exclusion chromatography technique the integrity of peptides IGF-II(54-67) and IGF-II(58-67) was analyzed before and after incubation with cells.

Substance | total number of cells surviving relative to control (in words) [1] | further results
ALLEKYCAKPAKSE [ALLEK YCAKP AKSE] | increased the total number of cells surviving | –
ALLET YCATP AKSE (ALLETYCATPAKSE) [IGF-II(54-67)] | increased the total number of cells surviving | PERCENT MAX. BOUND (IGF-I receptor): 94%; displacement of 125I-[Threonine59]IGF-I (in words) (IGF-I receptor; rat brain homogenate): not significantly effective displacers; [3H]-leucine incorporation (in words) [2]: increased [^3H]-leucine incorporation; PERCENT MAX. BOUND ([3]; peptide .025 mM): 132%; PERCENT MAX. BOUND ([3]; peptide .25 mM): 167%; brain ornithine decarboxylase activity (in words) [4]: increased brain ornithine decarboxylase activity; survival of cortical neurons (neurite bearing cells) (in words) (cortical neurons): increased the survival of cortical neurons; neurite outgrowth / regeneration (in words) [5]: neurite regenerative responses were observed
ALLETDYCATPAKSE (ALLET[dY]CATPAKSE) [IGF-II(54-67; D-Y)] | increased the total number of cells surviving | stability against degradation when incubated with cells (in words) [6]: stabilized against degradation when incubated with cells; neurite outgrowth / regeneration (in words) [5]: neurite regenerative responses were observed
APLKP AKSA (APLKPAKSA) [IGF-I(62-70)] | – | PERCENT MAX. BOUND (IGF-I receptor): 83%
APSTCEYKA [APSTC EYKA] | increased the total number of cells surviving | –
CAPAKSE [CAPAK SE] | increased the total number of cells surviving | –
CATPA KSE (CATPAKSE) [IGF-II (60-67)] | increased the total number of cells surviving | –
EALLETYCATPAKSE [EALLE TYCAT PAKSE] | increased the total number of cells surviving | –
EPYCAPPAKSE | increased the total number of cells surviving | neurite outgrowth / regeneration (in words) [5]: neurite regenerative responses were observed
GYGSS SRRAP QT (GYGSSSRRAPQT) [IGF-I(30-41)] | – | PERCENT MAX. BOUND (IGF-I receptor): 94%
LETYC ATP (LETYCATP) [IGF-II (56-63)] | increased the total number of cells surviving | –
RRLEMYCAPLKPAKSA [IGF-I(55-70)] | increased the total number of cells surviving | neurite outgrowth / regeneration (in words) [5]: neurite regenerative responses were observed
TDYCAPAKSE (T[dY]CAPAKSE) | increased the total number of cells surviving | –
TDYCATPAKSE (T[dY]CATPAKSE) [IGF-II(58-67; D-Y)] | increased the total number of cells surviving | –
TPAKS E (TPAKSE) [IGF-II(62-67)] | – | PERCENT MAX. BOUND (IGF-I receptor): 83%
TY(I2)CAP AKSE (T[Tyr(3,5-I2)]CAPAKSE) [iodinated-TYCAPAKSE] | increased the total number of cells surviving | –
TYCAP A (TYCAPA) | increased the total number of cells surviving | –
TYCAPAKSE | increased the total number of cells surviving | concentration-response of cortical neuronal cell survival (in words) ([1]; relative to basal control cultures): promotes cortical neuronal cell survival in a dose-dependent manner; neurite outgrowth / regeneration (in words) [5]: neurite regenerative responses were observed
TYCAT PAK (TYCATPAK) [IGF-II (58-65)] | increased the total number of cells surviving | –
TYCATPAKSE [IGF-II(58-67)] | increased the total number of cells surviving | neurite outgrowth / regeneration (in words) [5]: neurite regenerative responses were observed
YCAPA | increased the total number of cells surviving | –
YCAPAKSE [YCAPA KSE] | increased the total number of cells surviving | –

From patent publication US6723699B1, “Treating disorders by application of insulin-like growth factors and analogs” (Cephalon, Inc., priority 1989, dated 2004)
